Data on one compound can be found in publication PMC7083565, “In vitro metabolism, reaction phenotyping, enzyme kinetics, CYP inhibition and induction potential of ataluren” (Pharmacology Research & Perspectives, 2020).

Holding throughout (format): in vitro ADME
In data set [1] the test system is CYP2A6. Briefly: CYP induction in primary human hepatocytes: CYP2A6. Conditions: Coumarin 7-hydroxylase, 48 hours, n=3. How it is done:
(§1) Human hepatocytes isolated from three Caucasian males were transferred to 48‐well collagen‐coated plates at 0.14 × 10^6 cells/well in planting media for attachment. After attachment, planting media was replaced with sandwich media and the cells were incubated until clusters were established. […] The incubation solutions were aspirated and replaced with freshly prepared incubation solutions containing ataluren for an additional 24 hours. […] The incubation solutions were then aspirated and 150 µL of K‐H buffer containing CYP substrates were added. The hepatocytes were incubated for 30 minutes for CYP2C8 (10 µmol/L amodiaquine), 1 hour for CYP3A4 (125 µmol/L testosterone), and 4 hours for CYPs 1A2 (100 µmol/L phenacetin), 2A6 (100 µmol/L coumarin), 2B6 (150 µmol/L bupropion), 2C9 (50 µmol/L tolbutamide), 2C19 (100 µmol/L S‐mephenytoin), and 2E1 (300 µmol/L chlorzoxazone) activity assays. The reactions were stopped by the addition of 0.15 mL of ice‐cold methanol except that coumarin‐treated cells were incubated with β‐glucuronidase and aryl sulfatase for additional 1 hour to free 7‐hydroxycoumarin before the addition of 0.2 mL of ice‐cold methanol. Metabolite formation in incubations with test compounds and control inhibitors was assessed with validated LC‐MS/MS methods for each of the reaction products as described in Table S2. Enzymatic activity for each CYP was calculated using the absolute amount of metabolite formed (pmol) divided by hepatocytes in the incubation (million cells) and the incubation time (minute). The relative fold induction in enzymatic activity was calculated by comparing the rate of metabolite formation for treatment groups to that of the solvent control group (reported as vehicle control%) or positive control group (reported as positive control%).

Data set [2] concerns CYP3A4/5. Briefly: CYP induction in primary human hepatocytes: CYP3A4/5. Conditions: Testosterone 6β-hydroxylase, 48 hours, n=3. How it is done: as §1
For data set [3], the system named is CYP2C8. Briefly: CYP induction in primary human hepatocytes: CYP2C8. Particulars: male, 48 h. As for the experimental part:
as §1, with “The hepatocytes were incubated for 30 minutes for CYP2C8 (10 µmol/L amodiaquine), 1 hour for CYP3A4 (125 µmol/L testosterone), and 4 hours for CYPs 1A2 (100 µmol/L phenacetin), 2A6 (100 µmol/L coumarin), 2B6 (150 µmol/L bupropion), 2C9 (50 µmol/L tolbutamide), 2C19 (100 µmol/L S‐mephenytoin), and 2E1 (300 µmol/L chlorzoxazone) activity assays. The reactions were stopped by the addition of 0.15 mL of ice‐cold methanol except that coumarin‐treated cells were incubated with β‐glucuronidase and aryl sulfatase for additional 1 hour to free 7‐hydroxycoumarin before the addition of 0.2 mL of ice‐cold methanol.” left out

Data set [4] concerns the target T1, CYP2C19 (Homo sapiens, UniProt P33261).
T1 construct: tissue XenoTech LLC, Celsis-In Vitro Technologies, or Tissue Transformation Technologies; host or cells: pooled human liver microsomes
The data set can be described thus: CYP inhibition in pooled human liver microsomes: CYP2C19. Conditions: CYP2C19, HLM, estimated, concentrations up to 400 μmol/L. As for the experimental part:
(§2) The final concentration of each probe substrate was near the experimentally determined Km value for the indicated enzyme. Ataluren or prototypical CYP inhibitors (positive controls) was incubated (n = 3) with probe substrates and HLM in 100 mmol/L phosphate buffer (pH 7.4) in a total volume of approximately 0.25 mL, and the reactions were initiated by the addition of 1 mmol/L NADPH at 37°C. The reactions were carried out using previously established conditions to ensure linearity with respect to protein concentration and incubation time (Table S1). Incubations were stopped with the addition of ice‐cold acetonitrile. Metabolite formation in incubations with test compound and control inhibitors was assessed with LC‐MS/MS methods for each of the reaction products as described in Table S2. […] After 7 minutes incubation at 37°C, the reaction was stopped by the addition of ice‐cold acetonitrile, followed by membrane plate filtration. The filtrates were used for LC‐MS/MS analysis. […] IC50 values were determined by nonlinear regression with GraphPad Prism 5 using the following four‐parameter sigmoidal‐logistic IC50 equation: Fit=background+range-background/[1+I/IC50^slope]
(§3) Where, I is the inhibitor concentration, and background was set to 0 and range to 100, as percent of control values are utilized. K i was determined by nonlinear regression with GraphPad Prism 5 using best fit model.

Data set [5] addresses T2, CYP2D6 (Homo sapiens, UniProt P10635).
T2 construct: tissue XenoTech LLC, Celsis-In Vitro Technologies, or Tissue Transformation Technologies; host or cells: pooled human liver microsomes
The data set can be described thus: CYP inhibition in pooled human liver microsomes: CYP2D6. Conditions: CYP2D6, HLM, estimated, concentrations up to 400 μmol/L. As for the experimental part: as §2, §3

T1 sequence (P33261 whole entry): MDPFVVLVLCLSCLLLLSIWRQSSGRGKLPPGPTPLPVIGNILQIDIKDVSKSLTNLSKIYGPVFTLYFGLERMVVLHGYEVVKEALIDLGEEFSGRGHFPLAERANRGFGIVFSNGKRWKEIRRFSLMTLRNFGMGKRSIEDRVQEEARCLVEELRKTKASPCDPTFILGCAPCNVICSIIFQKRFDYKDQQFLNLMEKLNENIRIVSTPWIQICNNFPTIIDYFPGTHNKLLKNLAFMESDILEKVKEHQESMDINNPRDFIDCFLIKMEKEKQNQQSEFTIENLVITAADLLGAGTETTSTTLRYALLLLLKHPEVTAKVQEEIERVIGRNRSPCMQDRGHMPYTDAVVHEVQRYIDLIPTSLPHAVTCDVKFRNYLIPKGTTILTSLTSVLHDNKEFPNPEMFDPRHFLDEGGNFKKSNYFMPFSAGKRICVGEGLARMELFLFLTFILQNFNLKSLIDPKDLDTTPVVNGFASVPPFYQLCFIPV
T2 sequence (P10635 whole entry): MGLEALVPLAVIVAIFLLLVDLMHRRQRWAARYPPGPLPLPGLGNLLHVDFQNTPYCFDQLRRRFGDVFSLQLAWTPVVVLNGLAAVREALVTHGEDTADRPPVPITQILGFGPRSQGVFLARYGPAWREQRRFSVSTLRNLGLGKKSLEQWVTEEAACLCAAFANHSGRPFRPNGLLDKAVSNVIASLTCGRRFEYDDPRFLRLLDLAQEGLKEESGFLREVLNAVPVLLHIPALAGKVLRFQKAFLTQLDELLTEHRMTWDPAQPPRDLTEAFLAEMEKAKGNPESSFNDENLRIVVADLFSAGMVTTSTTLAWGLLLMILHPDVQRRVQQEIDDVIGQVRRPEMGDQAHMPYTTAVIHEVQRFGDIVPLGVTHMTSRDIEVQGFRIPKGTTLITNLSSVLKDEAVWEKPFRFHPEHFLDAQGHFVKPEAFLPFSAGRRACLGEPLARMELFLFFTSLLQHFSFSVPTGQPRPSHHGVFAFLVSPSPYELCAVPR

For the compound `O=C(O)c1cccc(-c2noc(-c3ccccc3F)n2)c1` [ataluren, Ataluren], the “Vehicle control %, Mean” value in data set [1] (ataluren 4 µM) worked out at 100%; in data set [1] (ataluren 40 µM) it was 111%; in data set [1] (ataluren 400 µM), 118%; in data set [2] (ataluren 4 µM), 103%; in data set [2] (ataluren 40 µM), 105%; in data set [2] (ataluren 400 µM) it was 109%. The “Vehicle control %, Mean” value in data set [3] (4 µM) turned out to be 93.0%; in data set [3] (400 µM) it was 67.6%. Moreover, the “Positive control %, Mean” value in data set [2] (ataluren 4 µM) was 0.594%; in data set [2] (ataluren 40 µM), 1.52%; in data set [2] (ataluren 400 µM) it was 3.72%. The IC50 in data set [4] and in data set [5] was over 400 µM throughout.
